# Measured values as given in patent US11464749B2, “Bismuth-thiol compositions and methods of use” (Microbion Corporation, priority 2018, dated 2022).
# Marks after values point to notes of the source that are not given here.
# How the values were obtained:
# Assay in all cases: Broth microdilution antifungal susceptibility (Example 13)
# Format in all cases: cell-based
# Candida albicans = test system: Candida albicans
# Candida glabrata = test system: Candida glabrata
# Candida krusei = test system: Candida krusei
# Candida auris = test system: Candida auris
# A. niger = A. niger ATCC 29508
# A. terreus = A. terreus MMX 8229
# A. fumigatus = conditions: for MIC0: comparators, read time not given
# A. flavus = conditions: for MIC0: comparators, read time not given
# [1] = isolate ATCC 90028 (Susceptible), 24 hr
# [2] = isolate ATCC 204276 (MICA-R), 24 hr
# [3] = isolate ATCC MYA-2732 (FLU-R, VORI-I), 24 hr
# [4] = isolate MMX 7053 (Susceptible), 24 hr
# [5] = isolate MMX 7067 (FLU-R, VORI-R), 24 hr
# [6] = isolate MMX 7403 (Susceptible), 24 hr
# [7] = isolate MMX 7424 (CASP-R, MICA-R), 24 hr
# [8] = isolate MMX 7430 (Susceptible), 24 hr
# [9] = isolate MMX 7437 (FLU-I), 24 hr
# [10] = isolate ATCC 90030 (Susceptible)
# [11] = isolate ATCC MYA-2950 (Susceptible)
# [12] = isolate MMX 7103 (CASP-R, MICA-R)
# [13] = isolate MMX 7285 (CASP-R, MICA-R)
# [14] = isolate MMX 7307 (CASP-R, MICA-R, FLU-R)
# [15] = isolate ATCC 14243 (Susceptible)
# [16] = isolate ATCC 96685 (Susceptible)
# [17] = isolate MMX 9878 (MICA-I, VORI-I)
# [18] = isolate MMX 9863 (FLU-R, VORI-R)
# [19] = isolate MMX 9864 (FLU-R, VORI-R)
# [20] = isolate MMX 9865 (FLU-R, VORI-R)
# [21] = isolate MMX 9866 (FLU-R, VORI-R)
# [22] = isolate MMX 9867 (FLU-R, VORI-R)
# [23] = isolate MMX 9868 (FLU-R, VORI-R)
# [24] = isolate MMX 9869 (FLU-R, VORI-R)
# [25] = isolate MMX 9870 (FLU-R, VORI-R)
# [26] = 48 hr only, insufficient growth for 24 hr read
# [27] = comparators, read time not given
compound,measurement,setting,value
CC[C@H](C)C[C@H](C)CCCCCCCCC(=O)N[C@H]1C[C@@H](O)[C@@H](NCCN)NC(=O)[C@@H]2[C@@H](O)CCN2C(=O)[C@H]([C@H](O)CCN)NC(=O)[C@H]([C@H](O)[C@@H](O)c2ccc(O)cc2)NC(=O)[C@@H]2C[C@@H](O)CN2C(=O)[C@H]([C@@H](C)O)NC1=O [CASP],MIC2 (50% inhibition),Candida albicans; [1],0.06 µg/mL
same,MIC2 (50% inhibition),Candida albicans; [2],0.25 µg/mL
same,MIC2 (50% inhibition),Candida albicans; [3],0.06 µg/mL
same,MIC2 (50% inhibition),Candida albicans; [4],0.06 µg/mL
same,MIC2 (50% inhibition),Candida albicans; [5],0.06 µg/mL
same,MIC2 (50% inhibition),Candida albicans; [6],0.06 µg/mL
same,MIC2 (50% inhibition),Candida albicans; [7],8 µg/mL
same,MIC2 (50% inhibition),Candida albicans; [8],0.06 µg/mL
same,MIC2 (50% inhibition),Candida albicans; [9],0.06 µg/mL
same,MIC2 (50% inhibition),"Candida albicans; isolate MMX 7445 (FLU-R, VORI-R), result after 48 hr incubation (insufficient growth at 24 hr)",0.06^a μg/mL
same,MIC2 (50% inhibition),Candida glabrata; [10],0.12 µg/mL
same,MIC2 (50% inhibition),Candida glabrata; [11],0.12 µg/mL
same,MIC2 (50% inhibition),Candida glabrata; isolate MMX 7087 (Susceptible),0.12 µg/mL
same,MIC2 (50% inhibition),Candida glabrata; isolate MMX 7093 (FLU-R),0.12 µg/mL
same,MIC2 (50% inhibition),Candida glabrata; isolate MMX 7101 (FLU-R),0.12 µg/mL
same,MIC2 (50% inhibition),Candida glabrata; [12],>8 µg/mL
same,MIC2 (50% inhibition),Candida glabrata; isolate MMX 7111 (Susceptible),0.12 µg/mL
same,MIC2 (50% inhibition),Candida glabrata; [13],0.5 µg/mL
same,MIC2 (50% inhibition),Candida glabrata; [14],>8 µg/mL
same,MIC2 (50% inhibition),Candida glabrata; isolate MMX 7549 (Susceptible),0.06 µg/mL
same,MIC2 (50% inhibition),Candida krusei; isolate ATCC 6258 (MICA-I),0.25 µg/mL
same,MIC2 (50% inhibition),Candida krusei; [15],0.012 µg/mL
same,MIC2 (50% inhibition),Candida krusei; [16],0.12 µg/mL
same,MIC2 (50% inhibition),Candida krusei; isolate MMX 7125 (Susceptible),0.25 µg/mL
same,MIC2 (50% inhibition),Candida krusei; isolate MMX 7128 (Susceptible),0.25 µg/mL
same,MIC2 (50% inhibition),Candida krusei; isolate MMX 7141 (Susceptible),0.25 µg/mL
same,MIC2 (50% inhibition),Candida krusei; isolate MMX 7153 (MICA-R),0.25 µg/mL
same,MIC2 (50% inhibition),Candida krusei; isolate MMX 7155 (Susceptible),0.25 µg/mL
same,MIC2 (50% inhibition),Candida krusei; isolate MMX 7563 (Susceptible),0.12 µg/mL
same,MIC2 (50% inhibition),Candida krusei; [17],0.25 µg/mL
same,MIC2 (50% inhibition),Candida auris; isolate MMX 9862 (Susceptible),0.12 µg/mL
same,MIC2 (50% inhibition),Candida auris; [18],0.12^b μg/mL
same,MIC2 (50% inhibition),Candida auris; [19],0.25^b μg/mL
same,MIC2 (50% inhibition),Candida auris; [20],0.25^b μg/mL
same,MIC2 (50% inhibition),Candida auris; [21],0.12^b μg/mL
same,MIC2 (50% inhibition),Candida auris; [22],0.12 µg/mL
same,MIC2 (50% inhibition),Candida auris; [23],0.25 µg/mL
same,MIC2 (50% inhibition),Candida auris; [24],0.25 µg/mL
same,MIC2 (50% inhibition),Candida auris; [25],0.25 µg/mL
same,MIC2 (50% inhibition),Candida auris; isolate MMX 9871 (Susceptible),0.25^b μg/mL
same,MEC (minimum effective concentration),A. niger; [26],0.06^b μg/mL
same,MEC (minimum effective concentration),A. terreus; [26],0.12^b μg/mL
same,MEC (minimum effective concentration),A. fumigatus; A. fumigatus ATCC 204305,0.25 µg/mL
same,MEC (minimum effective concentration),A. fumigatus; A. fumigatus ATCC MYA-3626,0.06 µg/mL
same,MEC (minimum effective concentration),A. fumigatus; A. fumigatus MMX 5934,0.12 µg/mL
same,MEC (minimum effective concentration),"A. fumigatus; A. fumigatus MMX 5938, 48 hr only, insufficient growth for 24 hr read",0.12^b μg/mL
same,MEC (minimum effective concentration),A. fumigatus; A. fumigatus MMX 5939,0.12 µg/mL
same,MEC (minimum effective concentration),A. flavus; A. flavus ATCC 22546,0.06 µg/mL
same,MEC (minimum effective concentration),A. flavus; A. flavus ATCC 204304,0.06 µg/mL
same,MEC (minimum effective concentration),A. flavus; A. flavus MMX 7935,0.03 µg/mL
C[C@@H](c1ncncc1F)[C@](O)(Cn1cncn1)c1ccc(F)cc1F [VORI],MIC2 (50% inhibition),Candida albicans; [1],≤0.008 µg/mL
same,MIC2 (50% inhibition),Candida albicans; [2],≤0.008 µg/mL
same,MIC2 (50% inhibition),Candida albicans; [3],0.5 µg/mL
same,MIC2 (50% inhibition),Candida albicans; [4],≤0.008 µg/mL
same,MIC2 (50% inhibition),Candida albicans; [5],>8 µg/mL
same,MIC2 (50% inhibition),Candida albicans; [6],≤0.008 µg/mL
same,MIC2 (50% inhibition),Candida albicans; [7],≤0.008 µg/mL
same,MIC2 (50% inhibition),Candida albicans; [8],≤0.008 µg/mL
same,MIC2 (50% inhibition),Candida albicans; [9],0.12 µg/mL
same,MIC2 (50% inhibition),"Candida albicans; isolate MMX 7445 (FLU-R, VORI-R), 24 hr",>8 µg/mL
same,MIC2 (50% inhibition),Candida glabrata; [10],0.12 µg/mL
same,MIC2 (50% inhibition),Candida glabrata; [11],0.12 µg/mL
same,MIC2 (50% inhibition),Candida glabrata; isolate MMX 7087 (Susceptible),0.03 µg/mL
same,MIC2 (50% inhibition),Candida glabrata; isolate MMX 7093 (FLU-R),2 µg/mL
same,MIC2 (50% inhibition),Candida glabrata; isolate MMX 7101 (FLU-R),2 µg/mL
same,MIC2 (50% inhibition),Candida glabrata; [12],0.12 µg/mL
same,MIC2 (50% inhibition),Candida glabrata; isolate MMX 7111 (Susceptible),0.06 µg/mL
same,MIC2 (50% inhibition),Candida glabrata; [13],1 µg/mL
same,MIC2 (50% inhibition),Candida glabrata; [14],4 µg/mL
same,MIC2 (50% inhibition),Candida glabrata; isolate MMX 7549 (Susceptible),0.06 µg/mL
same,MIC2 (50% inhibition),Candida krusei; isolate ATCC 6258 (MICA-I),0.12 µg/mL
same,MIC2 (50% inhibition),Candida krusei; [15],0.06 µg/mL
same,MIC2 (50% inhibition),Candida krusei; [16],0.5 µg/mL
same,MIC2 (50% inhibition),Candida krusei; isolate MMX 7125 (Susceptible),0.25 µg/mL
same,MIC2 (50% inhibition),Candida krusei; isolate MMX 7128 (Susceptible),0.12 µg/mL
same,MIC2 (50% inhibition),Candida krusei; isolate MMX 7141 (Susceptible),0.12 µg/mL
same,MIC2 (50% inhibition),Candida krusei; isolate MMX 7153 (MICA-R),0.25 µg/mL
same,MIC2 (50% inhibition),Candida krusei; isolate MMX 7155 (Susceptible),0.25 µg/mL
same,MIC2 (50% inhibition),Candida krusei; isolate MMX 7563 (Susceptible),0.25 µg/mL
same,MIC2 (50% inhibition),Candida krusei; [17],1 µg/mL
same,MIC2 (50% inhibition),Candida auris; isolate MMX 9862 (Susceptible),0.03 µg/mL
same,MIC2 (50% inhibition),Candida auris; [18],>8 µg/mL
same,MIC2 (50% inhibition),Candida auris; [19],2 µg/mL
same,MIC2 (50% inhibition),Candida auris; [20],8 µg/mL
same,MIC2 (50% inhibition),Candida auris; [21],8 µg/mL
same,MIC2 (50% inhibition),Candida auris; [22],8 µg/mL
same,MIC2 (50% inhibition),Candida auris; [23],>8 µg/mL
same,MIC2 (50% inhibition),Candida auris; [24],2 µg/mL
same,MIC2 (50% inhibition),Candida auris; [25],4 µg/mL
same,MIC2 (50% inhibition),Candida auris; isolate MMX 9871 (Susceptible),1 µg/mL
same,MIC0,A. niger; [27],0.5 µg/mL
same,MIC0,A. terreus; [27],0.25 µg/mL
same,MIC0,A. fumigatus; A. fumigatus ATCC 204305,0.5 µg/mL
same,MIC0,A. fumigatus; A. fumigatus ATCC MYA-3626,0.5 µg/mL
same,MIC0,A. fumigatus; A. fumigatus MMX 5934,0.25 µg/mL
same,MIC0,A. fumigatus; A. fumigatus MMX 5938,0.25 µg/mL
same,MIC0,A. fumigatus; A. fumigatus MMX 5939,2 µg/mL
same,MIC0,A. flavus; A. flavus ATCC 22546,1 µg/mL
same,MIC0,A. flavus; A. flavus ATCC 204304,2 µg/mL
same,MIC0,A. flavus; A. flavus MMX 7935,0.5 µg/mL
